Results: patent publication US11439640B2, “Pharmaceutical composition comprising substance inhibiting enzymatic activity of peroxiredoxin 2 as effective ingredient for treatment of colorectal cancer” (EWHA UNIVERSITY-INDUSTRY COLLABORATION FOUNDATION, priority 2017, dated 2022)
Residues, ends and D or L forms follow the SMILES beside them. *: point of attachment. Cbz = O=C(OCc1ccccc1)*

How the values were obtained:
Axin1 = Axin1 immunoprecipitation, PARsylation and ubiquitination blot; format: cell-based, human; details: cells of the control, HT29 and SW480
Description: (§1) For immunoprecipitation, purified cell lysates (0.5-1 mg of proteins) were removed in advance with 30 μL of protein-A/G Sepharose 4 Fast Flow beads (Amersham Biosciences) for one hour.
(§2) Supernatants (cultures floating on the surface) were incubated with 3 μg of an appropriate antibody overnight, and then, precipitated by mixing with 30 μL of protein-A/G beads at 4° C. for three hours.
(§3) Then, the beads were washed three times with 1 mL of lysis buffer, followed by in vitro PARP analysis or immunoblotting.

[1] = system: Axin1-related destruction complex; test: Co-immunoprecipitation of Axin1-related destruction complex; format: cell-based, human; details: SW480 cells; FIG. 34
Description: as §1, §2, §3

TNKS = details: FIG. 40
Description: (§4) Immunocomplex-bound beads were incubated at 25° C. for 30 minutes in 40 μL of assay buffer (50 mM Tris-HCl, pH 8.0, 4 mM MgCl2) containing 4 μCi of γ-^32[P]-NAD^+. The reaction was stopped by adding 2×SDS sample buffer. The sample was boiled and separated using an SDS denaturing gel.
(§5) The gel was dried under vacuum and radiographed on an imaging plate. Radioactivity recorded on the plate was read and quantified by Fujifilm Bio-imaging Analyzer System (BAS)-3000.

[2] = biological target: recombinant TNKS1 PARP domain (amino acids of 1023-1327) (Homo sapiens, UniProt O95271); details: incubation with H2O2; FIG. 48
Sequence of recombinant TNKS1 PARP domain (amino acids of 1023-1327) (O95271 1023-1327): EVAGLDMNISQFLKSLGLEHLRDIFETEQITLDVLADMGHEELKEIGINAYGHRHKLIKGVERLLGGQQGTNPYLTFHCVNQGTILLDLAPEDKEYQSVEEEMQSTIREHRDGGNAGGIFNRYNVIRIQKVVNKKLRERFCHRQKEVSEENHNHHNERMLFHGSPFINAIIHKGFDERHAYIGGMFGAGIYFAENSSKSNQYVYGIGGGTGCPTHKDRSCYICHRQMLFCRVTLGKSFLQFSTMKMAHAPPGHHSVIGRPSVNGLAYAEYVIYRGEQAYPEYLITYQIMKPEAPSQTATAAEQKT
Description: as §4, §5

GST-TNKS1 PARP protein = GST-TNKS1 PARP protein (Homo sapiens, UniProt O95271); details: 500 μM H2O2 for 30 minutes; FIG. 49
Sequence of GST-TNKS1 PARP protein (O95271 1023-1327): as above
Description: Zinc ions were observed using 4-(2-pyridylazo) resorcinol (PAR) in an aqueous solution.
The GST-TANK1 PARP protein was incubated with 500 μM H2O2 for 30 minutes in 200 μL of 40 mM HEPES (pH 7.0) reaction buffer containing 0.1 mM PAR. The formation of a PAR2-Zn^2+ complex was monitored at 500 nm with a UV/VIS spectrophotometer (Agilent).
The total zinc content of the purified GST-TNKS1 PARP protein used in the assay was determined by adding 0.5 mM p-chloromercuribenzoic acid to a reaction mixture.

recombinant human PrxI = biological target: T1, recombinant human PrxI (Homo sapiens, UniProt Q06830); test: Peroxiredoxin (peroxidase) assay, PrxI; format: biochemical
T1 sequence (Q06830 1-199): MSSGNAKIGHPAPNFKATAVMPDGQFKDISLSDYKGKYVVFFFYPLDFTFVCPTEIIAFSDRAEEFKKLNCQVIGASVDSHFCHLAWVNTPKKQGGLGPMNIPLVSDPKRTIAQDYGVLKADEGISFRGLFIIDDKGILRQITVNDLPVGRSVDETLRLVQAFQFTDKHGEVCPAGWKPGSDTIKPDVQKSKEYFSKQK
Description: The peroxidase assay was performed in a reaction mixture (200 μL) containing 250 μM NADPH, 1.5 μM yeast TR, 3 μM yeast Trx, a recombinant human Prx (PrxI (4.6 μM) and PrxII (16.4 μM)), and […] (pH 7.0) containing 1 mM EDTA, and […] H2O2.
The mixture (minus H2O2) was preincubated for 5 minutes in the presence or absence of Compounds 1 to 6 (100 μM), and then, the reaction was initiated by adding H2O2. NADPH oxidation was monitored at 30° C. for 5 minutes as the absorbance decreased near 340 nm using an Agilent UV8453 spectrophotometer (Hewlett Packard. USA). The initial reaction rate was calculated using the linear portion of the curve and indicated as the amount of oxidized NADPH per minute.

HT29 cells = test: Colony forming assay in HT29 cells; format: cell-based, human; details: APC-mutant CRC cells
SW480 cells = test: Colony forming assay in SW480 cells; format: cell-based, human; details: APC-mutant CRC cells
RKO cells = test: Colony forming assay in RKO cells; format: cell-based, human; details: APC wild-type CRC cells
[3] = system: tumor xenograft derived from HT29; test: HT29 tumor xenograft in mice (luminescence imaging, tumor weight); format: in vivo, mouse; details: intraperitoneal, 286 μM in DMSO, from 6 days after cell injection, every 3 days; FIGS. 65 and 66
Description: In the case of a tumor xenograft model, the mice were anesthetized by the inhalation of isoflurane gas (N2O:O2/70%:30%) and subcutaneously injected with HT29-luc2 cells (2.5×10^5 cells) suspended in 200 μL of PBS. Compound 1 to Compound 6 (286 μM in DMSO) were intraperitoneal administered starting from 6 days after the cell injection and repeated every 3 days.
Bioluminescent imaging was performed with IVIS Lumina Series III (Perkin Elmer). For each image photographing session, luciferin suspended in PBS (150 mg of luciferin/kg body weight) was administered intraperitoneally according to the manufacturer's protocol.
Up to four animals were maintained in the integral anesthetic manifold equipment and they were imaged 10 minutes after luciferin injection. The IVIS imaging system collects the photographic images of mice and quantitative bioluminescent signals therefrom and then allows them to overlap with each another.

CC(C)C[C@@H](C=O)NC(=O)[C@H](CC(C)C)NC(=O)[C@H](CC(C)C)NC(=O)OCc1ccccc1 [MG132] (Cbz-Leu-Leu-Leu-aldehyde)
PARsylated and ubiquitinated Axin1 (Axin1): induces the accumulation

O=C1Nc2cc(Br)ccc2/C1=C1/Nc2ccccc2/C1=N\O [BIO]
phospho-β-catenin in the Axin1-related destruction complex [1]: disappeared

OO [Compound H2O2, hydrogen peroxide]
TNKS activity (PARP) in HT29 cells (TNKS; HT29 cells): inhibited | TNKS activity (PARP) in SW480 cells (TNKS; SW480 cells): inhibited | polyADP-ribosylation activity of TNKS1 PARP domain [2]: fully inactivated | TNKS1 PARP proteins that lost zinc ions (GST-TNKS1 PARP protein): ≥ 90%

[O-][n+]1c(CBr)c(CBr)[n+]([O-])c2ccccc21 [Compound 6, 2,3-bis(bromomethyl)quinoxaline 1,4-dioxide]
effect on initial rate of PrxI activity (in words) (recombinant human PrxI; 100 μM compound): not affected | inhibition at 100 µM (recombinant human PrxI; 100 μM compound, FIG. 63): ~50% | initial rate of PrxI activity (recombinant human PrxI; group treated with Conoidin A, 100 μM, control 263.7±45.4): 241.7 ± 21 nmol/min | inhibition of proliferation (colony formation) of HT29 cells (HT29 cells): sufficiently inhibited | inhibition of proliferation (colony formation) of SW480 cells (SW480 cells): sufficiently inhibited | inhibition of proliferation (colony formation) of RKO cells (RKO cells): not | tumor growth compared to the control [3]: significantly delayed
